# Measured values reported in ChEMBL document CHEMBL3885861, “Open TG-GATES”.
# Species on record: Rattus norvegicus
# Experiment: Open TG-GATES - Regimen: Single
# Type: toxicity, organism-based, Sprague-Dawley
# Set-up: regimen Single, gender Male, age 6 weeks
# Details: in vivo, po, 1000 mg/kg, route gavage, dose level High; for APTT / Bas / Eos / Fbg / Hb / Ht / Lym / MCH / MCHC / MCV / Mono / Neu / PT / Plat / RBC / Ret / WBC: tissue Blood; for KIDNEY_L / KIDNEY_R / KIDNEY_TOTAL: tissue Kidney; for LIVER: tissue Liver; for A/G / ALP / ALT / AST / BUN / CRE / Ca / Cl / DBIL / GLC / IP / K / LDH / Na / PL / RALB / TBIL / TC / TG / TP / gamma-GTP: tissue Plasma
smiles,measurement,setting,value
CC(C)(S)[C@@H](N)C(=O)O [PENICILLAMINE],TERMINAL_BW,3 h,206.7 g
same,APTT,3 h,16.4 s
same,Bas,3 h,0%
same,Eos,3 h,1%
same,Fbg,3 h,281.4 mg/dL
same,Hb,3 h,13.2 g/dL
same,Ht,3 h,40.7%
same,Lym,3 h,77%
same,MCH,3 h,20.5 pg
same,MCHC,3 h,32.3%
same,MCV,3 h,63.4 fL
same,Mono,3 h,3.2%
same,Neu,3 h,18.4%
same,PT,3 h,15.6 s
same,Plat,3 h,128.4 x10_4/uL
same,RBC,3 h,642.8 x10_4/ul
same,Ret,3 h,9.2%
same,WBC,3 h,83.2 x10_2/uL
same,KIDNEY_L,3 h,0.9 g
same,KIDNEY_R,3 h,0.9 g
same,KIDNEY_TOTAL,3 h,1.8 g
same,LIVER,3 h,8.6 g
same,A/G,3 h,0.9
same,ALP,3 h,756.4 IU/L
same,ALT,3 h,41.8 IU/L
same,AST,3 h,75.6 IU/L
same,BUN,3 h,9 mg/dL
same,CRE,3 h,0.2 mg/dL
same,Ca,3 h,10.7 mg/dL
same,Cl,3 h,104.6 meq/L
same,DBIL,3 h,0.01 mg/dL
same,GLC,3 h,187 mg/dL
same,IP,3 h,8.3 mg/dL
same,K,3 h,4.3 meq/L
same,LDH,3 h,74 IU/L
same,Na,3 h,141.4 meq/L
same,PL,3 h,141 mg/dL
same,RALB,3 h,2.5 g/dL
same,TBIL,3 h,0.032 mg/dL
same,TC,3 h,78 mg/dL
same,TG,3 h,67.2 mg/dL
same,TP,3 h,5.1 g/dL
same,gamma-GTP,3 h,1.2 IU/L
same,TERMINAL_BW,6 h,203.8 g
same,APTT,6 h,16.5 s
same,Bas,6 h,0%
same,Eos,6 h,0.6%
same,Fbg,6 h,314 mg/dL
same,Hb,6 h,13.2 g/dL
same,Ht,6 h,41%
same,Lym,6 h,71.8%
same,MCH,6 h,20.8 pg
same,MCHC,6 h,32.1%
same,MCV,6 h,64.7 fL
same,Mono,6 h,4.2%
same,Neu,6 h,22.2%
same,PT,6 h,14.8 s
same,Plat,6 h,126.9 x10_4/uL
same,RBC,6 h,635.2 x10_4/ul
same,Ret,6 h,9.5%
same,WBC,6 h,86.9 x10_2/uL
same,KIDNEY_L,6 h,0.9 g
same,KIDNEY_R,6 h,0.9 g
same,KIDNEY_TOTAL,6 h,1.8 g
same,LIVER,6 h,8 g
same,A/G,6 h,1
same,ALP,6 h,741.6 IU/L
same,ALT,6 h,35.8 IU/L
same,AST,6 h,70.8 IU/L
same,BUN,6 h,8 mg/dL
same,CRE,6 h,0.2 mg/dL
same,Ca,6 h,10.6 mg/dL
same,Cl,6 h,105.4 meq/L
same,DBIL,6 h,0.004 mg/dL
same,GLC,6 h,173.6 mg/dL
same,IP,6 h,9.3 mg/dL
same,K,6 h,4.2 meq/L
same,LDH,6 h,80.8 IU/L
same,Na,6 h,141.4 meq/L
same,PL,6 h,134.6 mg/dL
same,RALB,6 h,2.5 g/dL
same,TBIL,6 h,0.028 mg/dL
same,TC,6 h,79.8 mg/dL
same,TG,6 h,31.4 mg/dL
same,TP,6 h,5.2 g/dL
same,gamma-GTP,6 h,1 IU/L
same,TERMINAL_BW,9 h,203.4 g
same,APTT,9 h,16.5 s
same,Bas,9 h,0%
same,Eos,9 h,1%
same,Fbg,9 h,294.2 mg/dL
same,Hb,9 h,13 g/dL
same,Ht,9 h,40.6%
same,Lym,9 h,73.6%
same,MCH,9 h,20.2 pg
same,MCHC,9 h,32.2%
same,MCV,9 h,62.9 fL
same,Mono,9 h,3.2%
same,Neu,9 h,21.6%
same,PT,9 h,15.4 s
same,Plat,9 h,116 x10_4/uL
same,RBC,9 h,645 x10_4/ul
same,Ret,9 h,9%
same,WBC,9 h,82.2 x10_2/uL
same,KIDNEY_L,9 h,1 g
same,KIDNEY_R,9 h,0.9 g
same,KIDNEY_TOTAL,9 h,1.9 g
same,LIVER,9 h,7.6 g
same,A/G,9 h,1
same,ALP,9 h,664.8 IU/L
same,ALT,9 h,31.4 IU/L
same,AST,9 h,65.4 IU/L
same,BUN,9 h,7.8 mg/dL
same,CRE,9 h,0.2 mg/dL
same,Ca,9 h,10.5 mg/dL
same,Cl,9 h,107 meq/L
same,DBIL,9 h,0.01 mg/dL
same,GLC,9 h,177 mg/dL
same,IP,9 h,10.2 mg/dL
same,K,9 h,4.3 meq/L
same,LDH,9 h,67.4 IU/L
same,Na,9 h,142.6 meq/L
same,PL,9 h,127 mg/dL
same,RALB,9 h,2.5 g/dL
same,TBIL,9 h,0.036 mg/dL
same,TC,9 h,73.2 mg/dL
same,TG,9 h,21.4 mg/dL
same,TP,9 h,5.1 g/dL
same,gamma-GTP,9 h,0.8 IU/L
same,TERMINAL_BW,24 h,215.2 g
same,APTT,24 h,16.2 s
same,Bas,24 h,0%
same,Eos,24 h,1.2%
same,Fbg,24 h,291 mg/dL
same,Hb,24 h,13.4 g/dL
same,Ht,24 h,41.2%
same,Lym,24 h,75.4%
same,MCH,24 h,20.8 pg
same,MCHC,24 h,32.4%
same,MCV,24 h,64.2 fL
same,Mono,24 h,3.2%
same,Neu,24 h,19.8%
same,PT,24 h,14.2 s
same,Plat,24 h,116.1 x10_4/uL
same,RBC,24 h,642.2 x10_4/ul
same,Ret,24 h,7.1%
same,WBC,24 h,85.6 x10_2/uL
same,KIDNEY_L,24 h,0.9 g
same,KIDNEY_R,24 h,0.9 g
same,KIDNEY_TOTAL,24 h,1.9 g
same,LIVER,24 h,9.8 g
same,A/G,24 h,0.9
same,ALP,24 h,1271.2 IU/L
same,ALT,24 h,47.8 IU/L
same,AST,24 h,68 IU/L
same,BUN,24 h,14.6 mg/dL
same,CRE,24 h,0.2 mg/dL
same,Ca,24 h,11 mg/dL
same,Cl,24 h,105.2 meq/L
same,DBIL,24 h,0.012 mg/dL
same,GLC,24 h,176 mg/dL
same,IP,24 h,9 mg/dL
same,K,24 h,4.1 meq/L
same,LDH,24 h,86.8 IU/L
same,Na,24 h,143.8 meq/L
same,PL,24 h,155.6 mg/dL
same,RALB,24 h,2.6 g/dL
same,TBIL,24 h,0.028 mg/dL
same,TC,24 h,85 mg/dL
same,TG,24 h,85.2 mg/dL
same,TP,24 h,5.4 g/dL
same,gamma-GTP,24 h,0.8 IU/L
